Each block holds one compound with its values, some of them ahead of it.
How the values were obtained:
rats = assay: Object recognition test (memory test); type: in vivo; details: rat, dose of 1.0 mg/kg of body weight p.o., 24 hours interval
Protocol: The object recognition test is a memory test. It measures the ability of rats (and mice) to differentiate between known and unknown objects and is therefore suitable for the determination of the memory-improving action of the compounds according to the invention.
The test is carried out as described (Blokland et al. NeuroReport 1998, 9, 4205-4208; Ennaceur, A., Delacour, J., Behav. Brain Res. 1988, 31, 47-59; Ennaceur, A., Meliani, K., Psychopharmacology 1992, 109, 321-330; Prickaerts, et al. Eur. J. Pharmacol. 1997, 337, 125-136).
In a first passage, a rat in an otherwise empty relatively large observation arena is confronted with two identical objects. The rat will extensively examine, i.e. sniff and touch, both objects. In a second passage, after an interval of 24 hours, the rat is again tested in the observation arena. One of the known objects is now replaced by a new, unknown object. When a rat recognizes the known object, it will especially examine the unknown object. After 24 hours, a rat, however, has normally forgotten which object it has already examined in the first passage, and will therefore inspect both objects equally intensively. The administration of a substance having learning- and memory-improving action will lead to a rat recognizing the object already seen 24 hours beforehand, in the first passage, as known. […]

PDE 2 = molecular target: T1, PDE 2 (UniProt P14099); assay: Measurement of the PDE inhibition (PDE 2, [3H]-cAMP substrate, cGMP prestimulation); type: biochemical, porcine or bovine; details: cGMP-stimulated PDE 2
T1 sequence (P14099 1-921): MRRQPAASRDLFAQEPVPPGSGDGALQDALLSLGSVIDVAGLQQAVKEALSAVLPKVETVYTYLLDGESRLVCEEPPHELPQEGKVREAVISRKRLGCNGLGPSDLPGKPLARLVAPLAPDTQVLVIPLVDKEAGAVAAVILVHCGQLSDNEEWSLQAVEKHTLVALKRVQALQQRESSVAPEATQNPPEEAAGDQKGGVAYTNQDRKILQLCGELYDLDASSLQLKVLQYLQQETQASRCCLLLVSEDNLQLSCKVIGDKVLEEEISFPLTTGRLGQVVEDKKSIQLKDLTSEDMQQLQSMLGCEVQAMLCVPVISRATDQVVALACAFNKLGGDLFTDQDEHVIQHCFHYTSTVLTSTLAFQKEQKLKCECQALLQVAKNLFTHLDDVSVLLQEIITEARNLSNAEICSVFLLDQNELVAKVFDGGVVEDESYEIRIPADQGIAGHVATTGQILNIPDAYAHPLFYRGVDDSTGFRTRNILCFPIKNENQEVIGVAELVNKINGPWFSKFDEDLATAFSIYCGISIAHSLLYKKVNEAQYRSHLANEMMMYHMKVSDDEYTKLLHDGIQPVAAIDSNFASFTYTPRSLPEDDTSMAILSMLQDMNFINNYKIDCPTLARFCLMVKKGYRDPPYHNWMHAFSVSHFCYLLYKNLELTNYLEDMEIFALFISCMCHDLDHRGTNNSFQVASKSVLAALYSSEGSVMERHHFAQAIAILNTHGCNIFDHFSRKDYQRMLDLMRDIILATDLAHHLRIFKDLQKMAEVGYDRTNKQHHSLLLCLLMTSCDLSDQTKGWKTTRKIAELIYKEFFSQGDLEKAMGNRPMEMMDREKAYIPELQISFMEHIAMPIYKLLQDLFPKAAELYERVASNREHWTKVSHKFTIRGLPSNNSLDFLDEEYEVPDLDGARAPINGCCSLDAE
Protocol: The cGMP-stimulable PDE (PDE 2), the cGMP-inhibitable PDE (PDE 3) and the cAMP-specific PDE (PDE 4) were isolated either from porcine or bovine heart myocardium. The Ca^2+ calmodulin-stimulable PDE 1 was isolated from porcine aorta, porcine brain or preferably from bovine aorta. The cGMP-specific PDE (PDE 5) was preferably obtained from porcine small intestine, porcine aorta, human blood platelets and preferably from bovine aorta. Purification was carried out by anion exchange chromatography on mono Q^R Pharmacia essentially according to the method of Hoey, M; Houslay, M. D., Biochem. Pharmacol. 1990, 40, 193-202 and Lugman et al. Biochem. Pharmacol. 1986, 35, 1743-1751.
The enzyme activity was determined in a test batch of 100 μl in 20 mM tris/HCl buffer pH 7.5 which contains 5 mM MgCl2, 0.1 mg/ml of bovine serum albumin and either 800 Bq of [^3H]-cAMP or [^3H]-cGMP. […] 100 μl of the reaction batch are separated on the HPLC and the cleavage products are determined quantitatively online using a flow-through scintillation counter. The substance concentration at which the reaction rate is decreased by 50% is measured. […]
Test substances were dissolved in 100% DMSO (10 mM), and this solution was further diluted with H2O (highest final concentration in the test: 10 μM). […] After the beads had settled (about 15 min), the plate was measured in a beta counter.

[1] = tested on: intracellular neuronal cGMP concentration in primary rat brain cell cultures; assay: Measurement of the increase in the intracellular neuronal cGMP concentration in cell cultures (SNP prestimulation); type: cell-based; details: parallel incubation of neurons with SNP, 37° C., 20 min
From the text: PDE 2 inhibitors increase the intracellular neuronal cGMP concentration after prestimulation of the guanylate cyclase using 10^−4 M sodium nitroprusside (SNP) in primary rat brain cell cultures.
Rat embryos were decapitated and the heads were transferred to preparation dishes. The scalp and cranium were removed, and the exposed brains were transferred to a further Petri dish. With the aid of a binocular microscope and two pairs of forceps, hippocampi were isolated from the cortex and cooled to 4° C. using ice. This preparation and the isolation of the hippocampal neurons were then carried out according to a standard protocol using the papain dissociation system (Worthington Biochemical Corporation, Lakewood, N.J. 08701, USA) (Huettner et al. J. Neurosci. 1986, 6, 3044-3060). The mechanically isolated neurons were cultured under standard conditions (37° C., 5% CO2) to 150,000 cells/hole in 200 μl of neurobasal medium/hole (neurobasal; Gibco/BRL; 2 mM L-glutamine; in the presence of penicillin/streptomycin) for 7 days in 96-hole plates (pretreated with poly-D-lysine 100 μg/ml for 20 min). After 7 days, the medium was removed and the cells were washed with HBS buffer (Gibco/BRL). […] The cells were then lysed in 200 μl of lysis buffer (cGMP kit code RPN 226; from Amersham Pharmacia Biotech.) and the cGMP concentration was measured according to the instructions of the manufacturer. […]

SMILES: COc1ccc(Cc2nn3c([C@@H](CCCc4ccccc4)[C@@H](C)O)nc(C)c3c(=O)[nH]2)cc1OC (single isomer, unassigned) [Example 16]
effect in the object recognition test (rats): shows an effect

melting point: 138 °C
IC50 (PDE 2): 10 nM
SMILES: COc1ccc(Cc2nn3c(C(CCCc4ccccc4)C(C)=O)nc(C)c3c(=O)[nH]2)cc1 (stereo not shown) [Example 2, 7-(1-Acetyl-4-phenylbutyl)-2-(4-methoxybenzyl)-5-methylimidazo[5,1-f][1,2,4]triazin-4(3H)-one]

SMILES: COc1ccc(Cc2nn3c(C(CCCc4ccccc4)C(C)O)nc(C)c3c(=O)[nH]2)cc1OC (stereo not shown) [Example 15, 2-(3,4-Dimethoxybenzyl)-7-[1-(1-hydroxyethyl)-4-phenylbutyl]-5-methylimidazo-[5,1-f][1,2,4]triazin-4(3H)-one]
concentration from which a marked increase in the intracellular cGMP level was seen [1]: ≥ 100 nM

— patent US6573263B2, “Substituted imidazotriazinones” (Bayer Aktiengesellschaft, priority 2000, dated 2003)
